According to the NIST ThermoML archive (doi:10.1016/j.fluid.2018.07.015):

Test: xn = mol fraction of the nth substance listed
Conditions: 101 kPa, Liquid, Vibrating tube method

C=O [methanal] + O
mass density [kg/m3]
Conditions | x1 = 0.0545 | x1 = 0.05456 | x1 = 0.09849 | x1 = 0.1544 | x1 = 0.2019 | x1 = 0.2573
291.15 K | – | 1025.9 | 1045.9 | 1070.2 | 1091.8 | 1112.8
298.15 K | 1024.6 | – | 1044.7 | 1069.9 | 1089.4 | 1111.3
313.15 K | 1019.6 | – | 1039.7 | 1066.9 | 1086.8 | 1109.9
